Reference: patent publication US9060968B2, “Treatment of degenerative joint disease” (AMPIO PHARMACEUTICALS, INC., priority 2011, dated 2015)

System: oxidized collagen IV
Test: Binding to H2O2 treated collagen IV (decrease in <5 kDa filtrate by LCMS)
Parameters: species or system human
Details: for Binding to collagen, result in words: oxidized forms of collagen
Procedure: Collagen source: 1 mg/ml Collagen IV form human placenta in 0.25% acetic acid (Sigma™). The collagen was oxidixed with 500 μM H2O2 in 1×PBS for 1 hour at 37° C. The oxidized collagen IV (final=0.2 mg/ml) was then incubated with 2 μM DA-DKP or 2 μM NAT in PBS for 1 hour at 37° C. At the end of the incubation, the <5 kDa fraction was isolated by a VIVASPIN® 2 microcentrifugal filter having a molecular weight cutoff of 5,000. The <5 kDa fraction was analyzed for DA-DKP and/or NAT content using a liquid chromatograph-mass spectrometery (LCMS) method for DA-DKP analysis.

For CC(=O)N[C@@H](Cc1c[nH]c2ccccc12)C(=O)O [NAT, N-acetyl-tryptophan], the “Binding to collagen, result in words” value was “bind to oxidized forms of collagen”.
In the case of C[C@@H]1NC(=O)[C@H](CC(=O)O)NC1=O [DA-DKP, aspartyl-alanyl diketopiperazine], the Average % decrease (2 μM, oxidized collagen IV 0.2 mg/ml, 1 hour at 37° C., alone) was 26.0% and the “Binding to collagen, result in words” value was “bind to oxidized forms of collagen”.
